These results are taken from patent US20240018125A1, “CYCLIC ISOTHIOUREA DERIVATIVES AS CXCR4 MODULATORS” (ERMIUM THERAPEUTICS, priority 2020, published 2024).

Counter-ions that a name gives are not always drawn. A value given as a limit tells only on which side of the number the result lay.

In general, melting point refers to the temperature of the solid-liquid transition.

Take `C1=C(CSC2=NCC(Cc3ccccc3)N2)N2Cc3ccccc3N=C2S1` (stereo not drawn) (as salt: hydrochloride) [Example 33, 3-(((5-benzyl-4,5-dihydro-1H-imidazol-2-yl)thio)methyl)-5H-thiazolo[2,3-b]quinazoline dihydrochloride]: the melting point is > 250 °C.
In the case of `COc1ccc(CC2(C)CN=C(SCC3=CSC4=NCc5ccccc5CN34)N2)cc1` (stereo not drawn) (as salt: hydrochloride) [Example 34, 3-(((5-(4-methoxybenzyl)-5-methyl-4,5-dihydro-1H-imidazol-2-yl)thio)methyl)-5,10-dihydrobenzo[e]thiazolo[3,2-a][1,3]diazepine dihydrochloride] it was 173 to 180 °C; in that of `C1=C(CSC2=NCc3ccccc3N2)N2CCc3ccccc3N=C2S1` (as salt: hydrochloride) [Example 35, 3-(((3,4-dihydroquinazolin-2-yl)thio)methyl)-5,6-dihydrobenzo[d]thiazolo[3,2-a][1,3]diazepine dihydrochloride], 248 to 249 °C.
The same measure for `CN1CCN=C1SCC1=CSC2=Nc3ccccc3CN12` (as salt: hydrochloride) [Example 36, 3-(((1-methyl-4,5-dihydro-1H-imidazol-2-yl)thio)methyl)-5H-thiazolo[2,3-b]quinazoline dihydrochloride]: 247 to 248 °C; for `CCCCN1CCN=C1SCC1=CSC2=NCc3ccccc3CN12` (as salt: hydrochloride) [Example 37, 3-(((1-butyl-4,5-dihydro-1H-imidazol-2-yl)thio)methyl)-5,10-dihydrobenzo[e]thiazolo[3,2-a][1,3]diazepine dihydrochloride]: 206 to 212 °C.
`CC1(c2ccccc2)CN2C(CSC3=NCc4ccccc4N3)=CSC2=N1` (stereo not drawn) (as salt: hydrochloride) [Example 38, 3-(((3,4-dihydroquinazolin-2-yl)thio)methyl)-6-methyl-6-phenyl-5,6-dihydroimidazo[2,1-b]thiazole dihydrochloride] gave a melting point of 230 to 235 °C.
In the case of `C1=C(CSC2=NCc3ccccc3N2)N2C(=Nc3ccccc3C2c2ccccc2)S1` (stereo not drawn) (as salt: hydrochloride) [Example 43, 3-(((3,4-dihydroquinazolin-2-yl)thio)methyl)-5-phenyl-5H-thiazolo[2,3-b]quinazoline dihydrochloride] it was 184 to 190 °C.
In turn, `COc1ccc(CC2(C)CN3C(CSC4=NCc5ccccc5N4)=CSC3=N2)cc1` (stereo not drawn) (as salt: hydrochloride) [Example 46, 3-(((3,4-dihydroquinazolin-2-yl)thio)methyl)-6-(4-methoxybenzyl)-6-methyl-5,6-dihydroimidazo[2,1-b]thiazole dihydrochloride] had a melting point of 156 to 168 °C.
The same measure for `c1ccc(CC2CN=C(SCCN3CCCCC3)N2)cc1` (stereo not drawn) (as salt: hydrochloride) [Example 50, 1-(2-((5-benzyl-4,5-dihydro-1H-imidazol-2-yl)thio)ethyl)piperidine dihydrochloride]: 50 to 60 °C; for `CN1CCCC1CSC1=NCC(Cc2ccccc2)N1` (stereo not drawn) (as salt: hydrochloride) [Example 53, 5-benzyl-2-(((1-methylpyrrolidin-2-yl)methyl)thio)-4,5-dihydro-1H-imidazole dihydrochloride]: 70 to 80 °C.
Consider `c1ccc(CC2CN=C(SCCN3CCCCCC3)N2)cc1` (stereo not drawn) (as salt: hydrochloride) [Example 58, 1-(2-((5-benzyl-4,5-dihydro-1H-imidazol-2-yl)thio)ethyl)azepane dihydrochloride], for which the melting point fell in the range of 65 to 85 °C.
On to `C1=C(CSC2=NCc3ccccc3N2)N2CC(Cc3cccs3)N=C2S1` (stereo not drawn) (as salt: hydrochloride) [Example 63, 3-(((3,4-dihydroquinazolin-2-yl)thio)methyl)-6-(thiophen-2-ylmethyl)-5,6-dihydroimidazo[2,1-b]thiazole dihydrochloride], for which the melting point was 215 to 220 °C.
The compound `C1=C(CSC2=NCc3ccccc3N2)N2CC(Cc3ccccc3)N=C2S1` (stereo not drawn) (as salt: hydrochloride) [Example 65, 6-benzyl-3-(((3,4-dihydroquinazolin-2-yl)thio)methyl)-5,6-dihydroimidazo[2,1-b]thiazole dihydrochloride] showed a melting point of 142 to 148 °C.
On to `c1ccc2c(c1)CN(CCSC1=NCc3ccccc3N1)C2` (as salt: hydrochloride) [Example 71, 2-((2-(isoindolin-2-yl)ethyl)thio)-3,4-dihydroquinazoline dihydrochloride], for which the melting point was in the range of 134 to 138 °C.
The compound `CC1(C)N=C(SCC2=CSC3=Nc4cccc(F)c4CN23)Nc2ccccc21` (as salt: hydrochloride) [Example 73, 3-(((4,4-dimethyl-1,4-dihydroquinazolin-2-yl)thio)methyl)-6-fluoro-5H-thiazolo[2,3-b]quinazoline dihydrochloride] showed a melting point of 190 to 194 °C.
In the case of `c1ccc2c(c1)CN=C(SCCN1CCCC1)N2` (as salt: hydrochloride) [Example 77, 2-((2-(pyrrolidin-1-yl)ethyl)thio)-1,4-dihydroquinazoline dihydrochloride] it was 195 to 203 °C.
Regarding `Fc1ccc2c(c1)N=C1SC=C(CSC3=NCc4ccccc4N3)N1C2` (as salt: hydrochloride) [Example 82, 3-(((1,4-dihydroquinazolin-2-yl)thio)methyl)-8-fluoro-5H-thiazolo[2,3-b]quinazoline dihydrochloride], the melting point is > 250 °C.
On to `Fc1ccc2c(c1)CN1C(CSC3=NCc4ccccc4N3)=CSC1=N2` (as salt: hydrochloride) [Example 84, 3-(((1,4-dihydroquinazolin-2-yl)thio)methyl)-7-fluoro-5H-thiazolo[2,3-b]quinazoline dihydrochloride], for which the melting point is > 250 °C.
`CC1(C)N=C(SCC2=CSC3=NC(Cc4ccccc4)CN23)Nc2ccccc21` (stereo not drawn) (as salt: hydrochloride) [Example 87, 6-benzyl-3-(((4,4-dimethyl-1,4-dihydroquinazolin-2-yl)thio)methyl)-5,6-dihydroimidazo[2,1-b]thiazole dihydrochloride] gave a melting point of 50 to 52 °C.
Compound `C1=C(CSC2=NCCc3ccccc3N2)N2CC(Cc3ccccc3)N=C2S1` (stereo not drawn) (as salt: hydrochloride) [Example 88, 6-benzyl-3-(((4,5-dihydro-1H-benzo[d][1,3]diazepin-2-yl)thio)methyl)-5,6-dihydroimidazo[2,1-b]thiazole dihydrochloride] had a melting point of 50 to 53 °C.
In turn, `Fc1ccc2c(c1)NC(SCC1=CSC3=NC(Cc4ccccc4)CN13)=NC2` (stereo not drawn) (as salt: hydrochloride) [Example 89, 6-benzyl-3-(((7-fluoro-1,4-dihydroquinazolin-2-yl)thio)methyl)-5,6-dihydroimidazo[2,1-b]thiazole dihydrochloride] registered a melting point of 125 to 130 °C.
The same measure for `CCCCN1Cc2ccccc2N=C1SCC1=CSC2=NC(Cc3ccccc3)CN12` (stereo not drawn) (as salt: hydrochloride) [Example 93, 6-benzyl-3-(((3-butyl-3,4-dihydroquinazolin-2-yl)thio)methyl)-5,6-dihydroimidazo[2,1-b]thiazole dihydrochloride]: 40 to 44 °C; for `CC1(C)c2ccccc2N=C2SC=C(CSC3=NCc4ccccc4N3)N21` (as salt: hydrochloride) [Example 95, 3-(((1,4-dihydroquinazolin-2-yl)thio)methyl)-5,5-dimethyl-5H-thiazolo[2,3-b]quinazoline dihydrochloride]: 180 to 185 °C; for `CCCCN1C(SCC2=CSC3=NC(Cc4ccccc4)CN23)=NCc2ccccc21` (stereo not drawn) (as salt: hydrochloride) [Example 99, 6-benzyl-3-(((1-butyl-1,4-dihydroquinazolin-2-yl)thio)methyl)-5,6-dihydroimidazo[2,1-b]thiazole dihydrochloride]: 50 to 58 °C.
In turn, `C1=C(CSC2=NCc3ccccc3N2)N2C[C@H](Cc3c[nH]c4ccccc34)N=C2S1` (as salt: hydrochloride) [Example 109, (S)-6-((1H-indol-3-yl)methyl)-3-(((1,4-dihydroquinazolin-2-yl)thio)methyl)-5,6-dihydroimidazo[2,1-b]thiazole dihydrochloride] showed a melting point of 180 to 190 °C.
`IC1=C(CSC2=NCc3ccccc3N2)N2CC(Cc3ccccc3)N=C2S1` (stereo not drawn) (as salt: hydrochloride) [Example 110, 6-benzyl-3-(((1,4-dihydroquinazolin-2-yl)thio)methyl)-2-iodo-5,6-dihydroimidazo[2,1-b]thiazole dihydrochloride] came in with a melting point of 177 to 182 °C.
With `Cc1cccc(CC2CN3C(CSC4=NCc5ccccc5N4)=CSC3=N2)c1` (stereo not drawn) (as salt: hydrochloride) [Example 112, 3-(((1,4-dihydroquinazolin-2-yl)thio)methyl)-6-(3-methylbenzyl)-5,6-dihydroimidazo[2,1-b]thiazole dihydrochloride], the melting point is 136 to 145 °C.
Regarding `CC1N=C(SCC2=CSC3=NC(Cc4ccccc4)CN23)Nc2ccccc21` (stereo not drawn) (as salt: hydrochloride) [Example 113, 6-benzyl-3-(((4-methyl-1,4-dihydroquinazolin-2-yl)thio)methyl)-5,6-dihydroimidazo[2,1-b]thiazole dihydrochloride], the melting point is 80 to 88 °C.
`Fc1cccc2c1CN=C(SCC1=CSC3=NC(Cc4ccccc4)CN13)N2` (stereo not drawn) (as salt: hydrochloride) [Example 117, 6-benzyl-3-(((5-fluoro-1,4-dihydroquinazolin-2-yl)thio)methyl)-5,6-dihydroimidazo[2,1-b]thiazole dihydrochloride]: the melting point lay in the range of 147 to 151 °C.
For the compound `C1=C(CSC2=NCc3ccccc3N2)N2CC(c3ccccc3)N=C2S1` (stereo not drawn) (as salt: hydrochloride) [Example 120, 3-(((1,4-dihydroquinazolin-2-yl)thio)methyl)-6-phenyl-5,6-dihydroimidazo[2,1-b]thiazole dihydrochloride], the melting point is 185 to 190 °C.
